Assays:
[1] = molecular target: renal medullary PRR (Rattus norvegicus, UniProt Q6AXS4); assay: AngII-induced hypertension in uninephrectomized SD rats, telemetry MAP; assay type: in vivo; details: AngII 100 ng/kg/min s.c. alone or with intramedullary PRO20 120 μg/kg/d; day 0 MAP 108+5.8
Method: FIGS. 26A, 26B, 26C, 26D, and 26E show the characterization of PRO20 and examination of its effect on AngII-induced hypertension. Comparison of PRO20 (B and D) and the HRP (A and C) in inhibiting prorenin-induced signaling. Primary rat IMCD cells were pretreated for 1 h with PRO20 (1.5 μM) or the HRP (2.0 μM) and then were exposed to 100 nM prorenin for 10 min. ERK1/2 phosphorylation was determined by immunoblotting. (E) Effect of intramedullary delivery of PRO20 on AngII-induced hypertension. Uninephrectomized SD rats were divided into the following three groups: (1) AngII, (2) AngII+IM PRO (intramedullary PRO20 infusion), and (3) AngII+IV PRO20 (intravenous PRO20 infusion). AngII was subcutaneously infused at 100 ng/kg/min via an osmotic mini-pump. IM PRO (PRO20 at 120 μg/kg/d) was performed via a catheter chronically implanted in the renal medulla. To control the spillover, IV PRO (PRO20 at 120 μg/kg/d) was performed via catheterization of jugular vein. Telemetry was performed to monitor mean arterial pressure (MAP) and it was turned on 4 h per day from 5:00 PM to 9:00 PM for 7 days. #p<0.01 vs. intravenous PRO20; *, p<0.05 vs. AngII alone. N=3-6 per group. Data are mean+SE. […]

[2] = Plasma and urinary aldosterone in AngII-infused rats; assay type: in vivo, rat; details: following AngII infusion
Method: FIGS. 31A, B, and C show the role of PRR in AngII-induced aldosterone production in vivo and in vitro. Plasma aldosterone concentrations (A) and urinary aldosterone excretion (B) were determined in control, AngII, AngII+IM PRO20, and AngII+IV PRO20 rats. The direct action of PRO20 in aldosterone regulation was tested in primary culture of rat IMCD cells (C). For the in vitro study, the cells were exposed to vehicle, AngII, or AngII+PRO20 and the medium were assayed for aldosterone release. N=3-6 per group. Data are means±SE.
Under anesthesia, blood was collected puncturing vena cava, and plasma was recovered by centrifugation. At the end of experiments, animals were placed in metabolic cages for urine collections. The renal inner medulla was homogenized in 2.6 mM EDTA, 3.4 mM hydroxyquinoline, 5 mM ammonium acetate, 200 μM PMSF, and 0.256 μM dimercaprol. […] Renin activity in urine, tissue homogenates, and cell culture medium was determined by measurement of AngI generation using an ELISA kit and it was performed in the native condition, active renin content with excessive angiotensinogen, and total renin content with excessive angiotensinogen plus trypsinization as previously described. Aldosterone concentrations in plasma, urine, and cell culture medium were measured using a commercial ELISA kit (Cat#:10004377, Cayman Chemical). […]

[3] = test system: α-ENaC; assay: Renal ENaC expression in AngII-infused rats (immunoblotting, qRT-PCR); assay type: in vivo, rat; details: following AngII infusion
Method: FIGS. 28A, 28B, 28C, 28D, 28E, 28F, 28G and 28H show the effect of IMPRO on renal inner medullary ENaC expression during AngThinduced hypertension. The expression of the three subunits of ENaC (α-, β-, and γ-) in the inner medulla of control, AngII and AngII+IM RPO rats was determined by immunobotting (A-E) and qRT-PCR (F-H). N=6 per group. Data are mean+SE.
Renal tissues were lysed and subsequently sonicated in PBS that contained 1% Triton x-100, 250 μM phenylmethanesulfonyl fluoride (PMSF), 2 mM EDTA, and 5 mM dithiothrietol (DTT) (pH 7.5). Protein concentrations were determined by the use of Coomassie reagent. […] of protein for each sample was denatured in boiling water for 10 min, then separated by SDS-PAGE, and transferred onto nitrocellulose membranes. The blots were blocked 1 h with 5% nonfat dry milk in Tris-buffered saline (TBS), followed by incubation for overnight with primary antibody. […] The blots were quantitated by using Imagepro-plus. […]
Epithelial sodium channel (ENaC) is the major sodium channel on the apical membrane of the CD Immunoblotting and qRT-PCR analysis of renal ENaC expression was performed. […] In contrast, α-ENaC protein abundance in the cortex was unaffected. qRT-PCR detected 1.6-fold increase of α-ENaC mRNA expression in the inner medulla, which was abolished by IM PRO (FIG. 28F). […]

renal medullary PRR, sequence (Q6AXS4 18-350): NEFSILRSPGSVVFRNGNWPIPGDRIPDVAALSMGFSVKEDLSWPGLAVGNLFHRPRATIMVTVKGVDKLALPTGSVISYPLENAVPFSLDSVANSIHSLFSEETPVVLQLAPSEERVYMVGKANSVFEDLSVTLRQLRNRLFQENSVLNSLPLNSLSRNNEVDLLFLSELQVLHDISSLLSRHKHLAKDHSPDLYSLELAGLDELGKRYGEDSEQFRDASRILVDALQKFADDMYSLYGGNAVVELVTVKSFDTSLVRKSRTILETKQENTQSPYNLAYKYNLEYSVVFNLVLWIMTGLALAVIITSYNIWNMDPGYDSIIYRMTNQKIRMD

## Angiotensin II (DRVYIHPF; Angiotensin-2; UniProt P01019 25-32, looked up) [AngII]
[1]
  MAP on day 7: 164.7+6.2 mmHg
[2]
  increase in aldosterone levels in the plasma: 60%
  increase in aldosterone levels in the urine: 3.2 fold
[3]; immunoblotting
  increase in renal medullary α-ENaC protein abundance: 2.2 fold
[3]; qRT-PCR
  increase of α-ENaC mRNA expression in the inner medulla: 1.6 fold

— patent US9586995B2, “Compositions and methods of use for (pro)renin receptor” (University of Utah, priority 2012, dated 2017)
